These results are taken from publication PMC8301926 (Biomolecules, 2021).

Where “and” joins values, the source holds several entries; their conditions need not be identical. Equal entries are not always repeated.

Test [1] has as its target T1, human M1 muscarinic acetylcholine receptor (hM1R) (Homo sapiens, UniProt P11229).
T1 construct: host or cells: CHO cells
Kind of test: M1 (h) functional GPCR assay, agonist effect, intracellular Ca2+. The settings on record: 100 µM; % of control response to 100-nM acetylcholine; CHO cells. It is filed as cell-based.

The target in test [2] is T2, human M5 muscarinic acetylcholine receptor (hM5R) (Homo sapiens, UniProt P08912).
T2 construct: host or cells: RBL (rat basophilic leukemic) cells
T2 sequence (P08912 1-532): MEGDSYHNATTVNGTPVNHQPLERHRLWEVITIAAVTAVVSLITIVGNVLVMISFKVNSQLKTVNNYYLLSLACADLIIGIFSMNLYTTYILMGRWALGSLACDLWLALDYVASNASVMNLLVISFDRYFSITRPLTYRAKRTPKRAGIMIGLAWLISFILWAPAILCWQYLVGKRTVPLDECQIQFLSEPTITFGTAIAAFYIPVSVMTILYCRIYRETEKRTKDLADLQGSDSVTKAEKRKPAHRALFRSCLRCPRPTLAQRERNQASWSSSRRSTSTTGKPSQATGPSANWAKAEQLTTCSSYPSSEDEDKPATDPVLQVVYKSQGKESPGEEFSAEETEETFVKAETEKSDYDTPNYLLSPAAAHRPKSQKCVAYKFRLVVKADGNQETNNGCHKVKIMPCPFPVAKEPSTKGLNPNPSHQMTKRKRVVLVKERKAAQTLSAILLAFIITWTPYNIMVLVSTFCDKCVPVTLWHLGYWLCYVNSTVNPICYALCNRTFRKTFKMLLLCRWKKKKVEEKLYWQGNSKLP
Kind of test: M5 (h) functional GPCR assay, antagonist effect, intracellular Ca2+. The format is cell-based. The settings on record: RBL.

The target in test [3] is T3, recombinant human monoamine oxidase B (hMAO-B) (Homo sapiens, UniProt P27338).
T3 sequence (P27338 1-520): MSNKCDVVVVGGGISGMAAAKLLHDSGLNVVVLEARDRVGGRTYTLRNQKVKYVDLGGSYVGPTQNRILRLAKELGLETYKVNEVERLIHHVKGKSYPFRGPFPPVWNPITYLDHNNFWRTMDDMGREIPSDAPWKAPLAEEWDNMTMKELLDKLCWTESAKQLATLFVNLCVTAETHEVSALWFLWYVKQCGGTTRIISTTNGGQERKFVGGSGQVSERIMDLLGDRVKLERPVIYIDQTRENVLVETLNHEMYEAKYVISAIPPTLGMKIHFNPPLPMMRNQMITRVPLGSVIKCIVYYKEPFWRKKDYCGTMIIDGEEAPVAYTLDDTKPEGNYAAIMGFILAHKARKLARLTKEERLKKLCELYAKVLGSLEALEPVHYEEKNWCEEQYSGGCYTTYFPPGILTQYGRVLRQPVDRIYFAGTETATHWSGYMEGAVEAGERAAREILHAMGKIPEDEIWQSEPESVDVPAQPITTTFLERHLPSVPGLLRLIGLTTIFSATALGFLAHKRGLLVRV
Kind of test: hMAO-B enzyme kinetics (Lineweaver-Burk, Dixon, secondary plots). It is filed as biochemical. The following applies: for Ki: hMAO-B, from secondary plots; for Inhibition Type, hMAO-B: Lineweaver-Burk and Dixon plots.

The target in test [4] is T3, recombinant human monoamine oxidase B (hMAO-B). In words: hMAO-B inhibition, MAO-Glo chemiluminescent assay. The following applies: mean ± SD of triplicate experiments. The format is biochemical.
In test [5] the target is T4, human M3 muscarinic acetylcholine receptor (hM3R) (Homo sapiens, UniProt P20309).
T4 construct: host or cells: CHO cells
T4 sequence (P20309 whole entry): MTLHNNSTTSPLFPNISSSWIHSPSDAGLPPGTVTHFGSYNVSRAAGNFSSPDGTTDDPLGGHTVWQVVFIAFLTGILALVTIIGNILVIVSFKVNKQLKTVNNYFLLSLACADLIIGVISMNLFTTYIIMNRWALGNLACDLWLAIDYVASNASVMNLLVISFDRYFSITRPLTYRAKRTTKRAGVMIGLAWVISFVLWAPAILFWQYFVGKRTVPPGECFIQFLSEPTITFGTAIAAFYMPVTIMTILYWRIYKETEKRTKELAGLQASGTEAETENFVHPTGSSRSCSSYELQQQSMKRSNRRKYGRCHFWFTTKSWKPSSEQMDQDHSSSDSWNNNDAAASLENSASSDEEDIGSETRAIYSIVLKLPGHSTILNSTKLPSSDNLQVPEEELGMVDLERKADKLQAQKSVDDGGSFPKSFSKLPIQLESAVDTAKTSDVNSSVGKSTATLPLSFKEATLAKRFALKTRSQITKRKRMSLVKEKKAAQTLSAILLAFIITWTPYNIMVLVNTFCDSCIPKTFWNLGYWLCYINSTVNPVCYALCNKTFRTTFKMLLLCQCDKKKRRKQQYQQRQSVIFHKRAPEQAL
Kind of test: M3 (h) functional GPCR assay, antagonist effect, intracellular Ca2+. It is filed as cell-based. The following applies: CHO.

In test [6] the target is T5, recombinant human monoamine oxidase A (hMAO-A) (Homo sapiens, UniProt P21397).
T5 sequence (P21397 1-527): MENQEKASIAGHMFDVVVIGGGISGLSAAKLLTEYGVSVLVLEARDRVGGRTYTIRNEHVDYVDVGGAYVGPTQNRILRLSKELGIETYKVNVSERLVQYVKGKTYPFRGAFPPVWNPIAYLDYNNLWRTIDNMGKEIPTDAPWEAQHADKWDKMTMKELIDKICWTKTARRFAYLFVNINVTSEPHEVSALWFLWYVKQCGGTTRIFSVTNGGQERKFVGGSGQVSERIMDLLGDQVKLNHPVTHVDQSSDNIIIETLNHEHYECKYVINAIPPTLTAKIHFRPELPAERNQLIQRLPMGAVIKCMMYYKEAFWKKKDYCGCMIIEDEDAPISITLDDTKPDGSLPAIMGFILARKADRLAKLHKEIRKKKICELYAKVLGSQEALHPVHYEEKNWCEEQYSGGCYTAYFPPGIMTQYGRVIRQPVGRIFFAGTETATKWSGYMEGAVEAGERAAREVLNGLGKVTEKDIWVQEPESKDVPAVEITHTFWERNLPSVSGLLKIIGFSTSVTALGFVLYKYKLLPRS
Kind of test: hMAO-A inhibition, MAO-Glo chemiluminescent assay. The format is biochemical.

Test [7] addresses T1, human M1 muscarinic acetylcholine receptor (hM1R). In words: M1 (h) functional GPCR assay, antagonist effect, intracellular Ca2+. The format is cell-based. The settings on record: CHO.
The target of test [8] is T6, human M2 muscarinic acetylcholine receptor (hM2R) (Homo sapiens, UniProt P08172).
T6 construct: host or cells: CHO cells
T6 sequence (P08172 1-466): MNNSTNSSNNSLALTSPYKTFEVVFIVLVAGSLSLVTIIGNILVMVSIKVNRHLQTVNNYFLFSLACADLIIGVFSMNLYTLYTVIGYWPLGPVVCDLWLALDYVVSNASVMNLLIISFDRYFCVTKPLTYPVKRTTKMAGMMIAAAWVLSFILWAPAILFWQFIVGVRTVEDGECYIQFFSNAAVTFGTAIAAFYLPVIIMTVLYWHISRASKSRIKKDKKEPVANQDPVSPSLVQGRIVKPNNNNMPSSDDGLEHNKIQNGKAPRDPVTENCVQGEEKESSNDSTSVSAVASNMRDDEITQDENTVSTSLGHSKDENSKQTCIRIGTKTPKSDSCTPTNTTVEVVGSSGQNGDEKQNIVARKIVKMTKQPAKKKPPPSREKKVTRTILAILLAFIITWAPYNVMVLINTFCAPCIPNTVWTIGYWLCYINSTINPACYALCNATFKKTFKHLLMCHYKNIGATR
In words: M2 (h) functional GPCR assay, antagonist effect, cAMP HTRF. The format is cell-based. The settings on record: CHO.

Test [9] has as its target T6, human M2 muscarinic acetylcholine receptor (hM2R). Kind of test: M2 (h) functional GPCR assay, agonist effect, cAMP HTRF. It is filed as cell-based. The settings on record: 100 µM; % of control response to 3-µM acetylcholine; CHO cells. (Time-resolved FRET reads energy transfer from a long-lived donor to a nearby acceptor.)

T1 sequence (P11229 whole entry): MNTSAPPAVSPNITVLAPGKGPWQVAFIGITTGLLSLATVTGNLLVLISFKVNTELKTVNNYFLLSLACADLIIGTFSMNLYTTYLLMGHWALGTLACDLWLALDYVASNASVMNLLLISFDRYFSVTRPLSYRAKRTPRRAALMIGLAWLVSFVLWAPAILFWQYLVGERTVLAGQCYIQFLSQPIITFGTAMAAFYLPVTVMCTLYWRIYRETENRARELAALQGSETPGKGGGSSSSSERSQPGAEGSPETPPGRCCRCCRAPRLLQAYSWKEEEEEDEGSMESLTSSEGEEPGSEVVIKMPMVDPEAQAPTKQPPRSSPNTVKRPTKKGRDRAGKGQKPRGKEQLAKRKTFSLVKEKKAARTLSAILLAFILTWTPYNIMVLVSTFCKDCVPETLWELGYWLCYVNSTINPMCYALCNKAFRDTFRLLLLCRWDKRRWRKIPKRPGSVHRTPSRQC

In general, inhibition refers to the change of the read-out against control, counted positive when it falls. As a reminder, the Ki is the dissociation constant of the complex between target and ligand, obtained from inhibition or displacement. Usually IC50 stands for the concentration that gives 50% inhibition. Consider `Cc1coc2c1C(=O)C(=O)c1c-2ccc2c(C)cccc12` [Tanshinone I], for which the “% Stimulation, M1” value in [1] came out at 2.5 ± 0.21%. Also, the inhibition at 100 µM in test [2] is -0.5 ± 0.42%; in test [5] it was 3.3 ± 11.2%; in test [7] it was 13.8 ± 1.98%; in test [8] it was 35.8 ± 4.74%. In addition, the Ki in test [3] (Kic) turned out to be 25.6 ± 1.1 µM; in test [3] (Kiu), 17.4 ± 0.78 µM. The results for the “Inhibition Type, hMAO-B” value in [3] and in test [3] (listed as 1) were “Mixed” and “mixed mode of inhibition”, respectively. Besides, the IC50 in test [4] was 24.9 ± 3.82 µM; in test [6] (IC50, hMAO-A, mean ± SD of triplicate experiments), < 10 µM and 2.62 µM. Besides, in [6] (ratio of the IC50 value for hMAO-A inhibition to that for hMAO-B inhibition), the “SI (selectivity index)” value came out at 0.11. Further, in test [9], the “% Stimulation, M2” value is on record as 12.6 ± 3.61%.
